Assay results reported in paper PMC4104029, “Mechanism of Action of Compound-13: An α1-Selective Small Molecule Activator of AMPK” (Chemistry & Biology, 2014).

What was measured:
PP2Cα = biological target: T1, PP2Cα (Homo sapiens, UniProt P35813); experiment: PP2Cα activity on synthetic peptide substrate; type: biochemical; details: synthetic peptide substrate EFLR(pT)SCGS
T1 construct: purchased Division of Signal Transduction Therapy (DSTT, Dundee); host or cells: E. coli
Protocol: AMPKα1β1γ1 or α2β1γ1 was dephosphorylated in vitro with PP2Cα in 50 mM HEPES pH 7.4, 10 mM MgCl2, 0.1 mM EGTA, 0.03% BRIJ-35, 1 mM DTT, and the indicated compounds for 15 min at 30°C. Mg^2+ was omitted from the negative control. Reactions were terminated by 20-fold dilution and storage on ice. AMPK activity was assayed under standard conditions in the presence of saturating AMP (200 μM). The results are expressed as percentage activity of the negative control. In control experiments, PP2Cα activity was determined in reactions containing 50 mM TES pH 7.4, 0.1 mM EGTA, 25 mM MgCl2, 0.01% BRIJ-35, 0.02% (v/v) 2-mercaptoethanol, and 100 μM EFLR(pT)SCGS (168–176 AMPKα2). Liberated phosphate was determined using malachite green ([Baykov et al., 1988]).
Supplemental Figure Legends:
Figure S1, related to Figures 1-3. […] (A) Heterotrimeric AMPK complexes (10 ng) produced in both Sf9 (Sigma and Signalchem) and E.coli (in our laboratory) were analysed by Western blotting using isoform specific antibodies. […]
Figure S3, related to Figure 2. […] Results are expressed as mean Pi incorporated in nmol.min-1.mg-1 ± SD. […] Results are expressed as fold increase in activity relative to controls in the absence of compound ± SD.
(E) C2 and AMP displace a GST-AMPKγ2 subunit fusion from ATP-γ-Sepharose. […] The presence of eluted AMPKγ2 was analysed by SDS-PAGE and staining with colloidal Coomassie. […]

mouse hepatocytes = experiment: Adenine nucleotide ratios by capillary electrophoresis; type: cell-based; details: 1 hr; C13 up to 100 μM
Protocol: Figure 4 The C2 Prodrug, C13, Potently Activates AMPK in Mouse Primary Hepatocytes (A) Isolated mouse hepatocytes were incubated with vehicle or the indicated concentrations of C13 for 1 hr. AICAR (0.5 mM) was included as a positive control. Cell lysates were analyzed using western blotting with the indicated antibodies. (B) AMPKα1 or AMPKα2 complexes were immunoprecipitated from hepatocyte extracts prepared as described in (A) and assayed for kinase activity using 0.2 mM AMARA and 0.1 mM ATP. Results are expressed as the mean Pi incorporated in picomoles per minute-milligram ± SD. (C) Hepatocytes were stimulated with 30 μM C13 for the indicated times prior to harvesting, with AICAR (0.5 mM, 1 hr) as positive control. Lysates were analyzed using western blotting with the indicated antibodies. (D) Mouse hepatocytes were treated with the indicated compounds for 1 hr, and adenine nucleotide ratios were determined using capillary electrophoresis of perchloric acid extracts. (E) Mouse hepatocytes were preincubated with 30 μM STO-609 for 30 min prior to stimulation with 30 μM C13 for 1 hr or with 1 μM ionomycin for 30 min. Lysates were analyzed using western blotting with the indicated antibodies. (F) Wild-type (LKB1^+/+) or LKB1-null (LKB1^−/−) mouse embryonic fibroblasts were incubated with the indicated concentrations of C13 for 1 hr. AICAR (2 mM) was included as a positive control. Lysates were analyzed using western blotting with the indicated antibodies. Results are representative of three independent experiments. […]
Isolation of primary hepatocytes. Hepatocytes were isolated from fasted mice by collagenase digestion (Berry and Friend, 1969). Cells were seeded in M199 containing 100 U/ml penicillin G, 100 µg/ml streptomycin, 0.1 % (w/v) BSA, 10 % (v/v) FBS, 10 nM insulin, 200 nM triiodothyronine and 100 nM dexamethasone. […]
Nucleotide measurements. […] Nucleotides were separated and quantified by capillary electrophoresis using a Beckman P/ACE instrument as previously described (Hawley, et al., 2010).

T1 sequence (P35813 whole entry, species assumed): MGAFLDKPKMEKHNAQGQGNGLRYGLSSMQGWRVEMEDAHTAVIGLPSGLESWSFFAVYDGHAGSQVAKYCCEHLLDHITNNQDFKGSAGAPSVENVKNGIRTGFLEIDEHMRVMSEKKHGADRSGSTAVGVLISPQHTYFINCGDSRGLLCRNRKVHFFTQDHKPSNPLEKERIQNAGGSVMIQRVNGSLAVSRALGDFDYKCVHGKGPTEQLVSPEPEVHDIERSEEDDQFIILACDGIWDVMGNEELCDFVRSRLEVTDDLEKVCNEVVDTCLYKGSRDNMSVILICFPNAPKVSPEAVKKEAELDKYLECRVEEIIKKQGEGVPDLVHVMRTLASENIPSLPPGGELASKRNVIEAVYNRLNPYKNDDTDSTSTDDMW

SMILES	direct effect on PP2Cα activity (PP2Cα)	ADP:ATP and AMP:ATP ratios (mouse hepatocytes)
O=P(O)(O)c1ccc(-c2cc(O)on2)o1 [Compound C2, 5-(5-hydroxyl-isoxazol-3-yl)-furan-2-phosphonic acid]	no direct effect	
CC(C)C(=O)OCOP(=O)(OCOC(=O)C(C)C)c1ccc(C2=NOC(=O)C2)o1 [Compound C13]		no detectable changes
